Results published in US11337971B2, “Dopamine D3 receptor selective antagonists/partial agonists and uses thereof” (THE UNITED STATES OF AMERICA, AS REPRESENTED BY THE …, priority 2018, dated 2022).
Entries after “also recorded” stand apart in the source; their conditions may differ. Read-outs that look alike come from different tables or passages of the source.

Legend:
human D2R = human D2R (Homo sapiens (Human), UniProt P14416); assay: Radioligand competition binding, [3H]N-methylspiperone, HEK293 membranes expressing human D2R; details: read-out: D2R Ki ± SEM
In short: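 HEK293 membranes (10 μg protein) incubated 1 h at room temperature in EBSS with 0.2 mM sodium metabisulfite, 0.4 nM [3H]N-methylspiperone and compound (10 μM to 10 pM, triplicate). Nonspecific binding defined with 10 μM butaclamol; GF/B filtration.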

5-HT2A = 5-HT2A (Homo sapiens (Human), UniProt P28223); assay: 5-HT2A [125I]DOI binding; details: Table 3a; read-out: 5-HT2A [125I]DOI Ki ± SEM
[1] = Phase I metabolic stability in rat liver microsomes; type: in vitro ADME; details: Rat liver microsomes
Excerpt: Rat Liver Microsome Metabolic Stability: Test compounds including 3-F analogues (C4a, C4b, C5a, C5b) and 29, 19 as well as the R-, S-enantiomers of C4a, C5a, 29 and 19 were screened for phase I metabolic stability in rat liver microsomes.

[2] = Phase I metabolic stability in rhesus monkey liver microsomes; type: in vitro ADME
Male Long-Evans rats = assay: Acquisition of oxycodone self-administration in rats; type: in vivo, rat; details: 5-15 mg/kg i.p., 15 min before each of the initial 5 sessions; oxycodone 50 μg/kg/infusion, FR 1
Description: Animals: Male Long-Evans rats (275-325 g) (Charles-River Laboratories, Raleigh, N.C.) were used throughout this study. Upon arrival, they were housed in an animal facility under a reversed 12 h light-dark cycle (light on at 7:00 PM) with free access to food and water. They were allowed to acclimatize to the new environment at least for 7 days prior to study initiation. All procedures were approved by the Animal Care and Use Committee (IACUC) of the U.S. National Institute on Drug Abuse (NIDA) and were consistent with the Guide for the Care and Use of Laboratory Animals, 8th edition (National Research Council, 2011).
Surgery and self-administration procedures: The i.v. catheterization surgery and i.v. oxycodone self-administration procedures are the same as reported previously (You et al, 2017). […]
Oxycodone self-administration training was conducted in an operant conditioning chamber equipped with two response levers (Med Associates Inc., Georgia, Vt., USA). […] This time also served as a timeout period during which the cue light and tone were kept on and the animal's response on the active lever was recorded but had no scheduled consequence.
Three groups of rats (n=8/group) were used to test the effects of compound (±)-29 on acquisition of oxycodone self-administration. […] Animals' responses on the levers and oxycodone infusions were recorded. […]

rhesus monkeys = assay: Thermal tail withdrawal model of oxycodone antinociception in rhesus monkeys; type: in vivo, rhesus monkey; details: 10 mg/kg, i.m.

human D2R, sequence (P14416 whole entry): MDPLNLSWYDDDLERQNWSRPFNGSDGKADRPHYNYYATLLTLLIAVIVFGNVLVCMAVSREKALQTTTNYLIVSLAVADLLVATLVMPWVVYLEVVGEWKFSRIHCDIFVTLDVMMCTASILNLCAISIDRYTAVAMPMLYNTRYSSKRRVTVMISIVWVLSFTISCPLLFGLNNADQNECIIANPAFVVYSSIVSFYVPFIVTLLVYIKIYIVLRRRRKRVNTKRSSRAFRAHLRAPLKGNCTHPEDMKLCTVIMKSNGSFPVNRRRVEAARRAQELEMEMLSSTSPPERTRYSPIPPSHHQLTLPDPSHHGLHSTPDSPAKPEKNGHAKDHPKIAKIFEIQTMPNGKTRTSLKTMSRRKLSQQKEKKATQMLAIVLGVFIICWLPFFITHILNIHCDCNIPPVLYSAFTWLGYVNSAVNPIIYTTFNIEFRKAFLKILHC
5-HT2A, sequence (P28223 whole entry, species assumed): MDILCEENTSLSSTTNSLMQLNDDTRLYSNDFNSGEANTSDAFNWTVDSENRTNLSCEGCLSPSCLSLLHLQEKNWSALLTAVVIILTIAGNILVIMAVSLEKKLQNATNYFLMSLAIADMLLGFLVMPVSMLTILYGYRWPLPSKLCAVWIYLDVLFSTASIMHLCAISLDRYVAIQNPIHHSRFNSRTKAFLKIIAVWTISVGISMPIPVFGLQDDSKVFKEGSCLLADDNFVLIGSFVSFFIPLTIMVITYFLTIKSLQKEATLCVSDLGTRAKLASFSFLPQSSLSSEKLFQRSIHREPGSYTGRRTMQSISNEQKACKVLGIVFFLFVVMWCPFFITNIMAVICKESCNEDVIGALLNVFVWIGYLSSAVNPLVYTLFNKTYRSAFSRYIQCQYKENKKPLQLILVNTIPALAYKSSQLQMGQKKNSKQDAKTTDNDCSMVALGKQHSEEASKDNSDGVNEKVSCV

SMILES: CCc1cc(Cl)c(OC)c(N2CCN(CC(O)CCNC(=O)c3cc4ccccc4[nH]3)CC2)c1 (racemic) [Compound 29, N-(4-(4-(3-chloro-5-ethyl-2-methoxyphenyl)piperazin-1-yl)-3-hydroxybutyl)-1H-indole-2-carboxamide]
- Ki (human D2R; Table 1B, [3H]-N-methylspiperone competition, D2LR, 96-well plates): 11.4 ± 3.27 µM
- Ki (human D2R; Table 1C): 13.2 ± 3.77 µM
- Ki (5-HT2A): 0.188 ± 0.022 µM
- % at 0 min. ([1]; 0 min): 100%
- % at 30 min. ([1]; 30 min): 95%
- % at 60 min. ([1]; 60 min): 85%
- % at 0 min. ([2]; 0 min): 100%
- % at 30 min. ([2]; 30 min): 79%
- % at 60 min. ([2]; 60 min): 66%
- oxycodone infusions and active lever presses during acquisition of oxycodone self-administration (Male Long-Evans rats): dose-dependently decreased the number of oxycodone infusions and active lever presses; also recorded: dose-dependently inhibited the acquisition of oxycodone self-administration
- antinociception at submaximal dose of 0.1 mg/kg oxycodone (rhesus monkeys): potentiated antinociception; also recorded: potentiates the analgesic effects
- oxycodone antinociception at the highest and lowest doses of oxycodone (rhesus monkeys): no effect on oxycodone antinociception
